# From patent US20220395472A1 (Dermavant Sciences GmbH, priority 2021, published 2022)
# Tested on: adults with plaque psoriasis
# Assay: Long-term extension study (PSOARING 3): adverse events
# Type: in vivo, human
# From the text: Endpoints: Incidence, frequency, and nature of AEs, adverse events of special interest (AESIs), and serious adverse events (SAEs), Change over time in clinical laboratory tests and frequency of clinically significant abnormal test results, Change over time in vital signs and frequency of clinically significant abnormal results, Local Tolerability Scale (LTS) scores by severity summarized by visit.
# Safety assessments included AEs, AESIs, SAEs, local (application site) tolerability, clinical laboratory tests, vital signs, physical examinations, and Investigator assessed LTS. Efficacy assessments included a 5 point static PGA (0 [clear], 1 [almost clear], 2 [mild], 3 [moderate], 4 [severe]), % BSA affected, the PASI, and subject reported DLQI.
# [1] = final analysis, Tapinarof→Tapinarof
# [2] = final analysis, Vehicle→Tapinarof
structure (smiles),measurement,setting,value
"CC(C)c1c(O)cc(/C=C/c2ccccc2)cc1O [Tapinarof, 3,5-Dihydroxy-4-isopropyl-trans-stilbene]",TEAE incidence: contact dermatitis,final analysis,5.5%
same,TEAE incidence: folliculitis,final analysis,22.7%
same,TEAE incidence: upper respiratory tract infection,final analysis,4.7%
same,discontinuation rate due to contact dermatitis,final analysis,1.4%
same,discontinuation rate due to folliculitis,final analysis,1.2%
same,Study discontinuation due to AESI: Dermatitis contact,"final analysis, Overall",11 (1.4) n (%)
same,Study discontinuation due to AESI: Folliculitis,"final analysis, Overall",9 (1.2) n (%)
same,Study discontinuation due to AESI: Headache,"final analysis, Overall",0 n (%)
same,Study discontinuation due to TEAEs,"final analysis, Overall",41 (5.4) n (%)
same,Treatment-emergent AESI: Dermatitis contact,"final analysis, Overall",45 (5.9) n (%)
same,Treatment-emergent AESI: Folliculitis,"final analysis, Overall",183 (24.0) n (%)
same,Treatment-emergent AESI: Headache,"final analysis, Overall",15 (2.0) n (%)
same,Study discontinuation due to AESI: Dermatitis contact,[1],7 (1.4) n (%)
same,Study discontinuation due to AESI: Folliculitis,[1],6 (1.2) n (%)
same,Study discontinuation due to AESI: Headache,[1],0 n (%)
same,Study discontinuation due to TEAEs,[1],26 (5.1) n (%)
same,Treatment-emergent AESI: Dermatitis contact,[1],24 (4.7) n (%)
same,Treatment-emergent AESI: Folliculitis,[1],124 (24.4) n (%)
same,Treatment-emergent AESI: Headache,[1],10 (2.0) n (%)
same,Study discontinuation due to AESI: Dermatitis contact,[2],4 (1.6) n (%)
same,Study discontinuation due to AESI: Folliculitis,[2],3 (1.2) n (%)
same,Study discontinuation due to AESI: Headache,[2],0 n (%)
same,Study discontinuation due to TEAEs,[2],15 (5.9) n (%)
same,Treatment-emergent AESI: Dermatitis contact,[2],21 (8.2) n (%)
same,Treatment-emergent AESI: Folliculitis,[2],59 (23.1) n (%)
same,Treatment-emergent AESI: Headache,[2],5 (2.0) n (%)
same,study discontinuation rate due to contact dermatitis,interim,1.4%
same,study discontinuation rate due to folliculitis,interim,1.2%
same,Premature discontinuation due to AEs,"interim, Overall",5.8%
same,Premature discontinuation due to AEs,"interim, Tapinarof (Pivotal) group",5.7%
same,Premature discontinuation due to AEs,"interim, Vehicle (Pivotal) group",5.9%
